Tests used:
[1] = tested on: spontaneously hypertensive rats (SHR's); test: in vivo antihypertensive effect, blood pressure in spontaneously hypertensive rats; details: 50 mg/kg, IP, Mean Difference ± Standard Deviation
Description: The ability of the compounds of this invention to lower blood pressure can be determined in vivo using spontaneously hypertensive rats (SHR's) according to standard and well known procedures. The test compound is administered intraperitoneally (ip) to rats and the blood pressure monitored continuously. Since DBH is a major enzyme in the synthetic pathway of the catecholamines, it would be expected that the presence of an inhibitor would act to decrease the amount of catecholamines produced, and thereby have an antihypertensive effect. The results of the testing for this antihypertensive effect are shown in Table I (MBP is mean blood pressure).

[2] = biological target: T1, dopamine beta-hydroxylase (DBH) (Bos taurus, UniProt P15101); test: in vitro inhibition of dopamine beta-hydroxylase (conversion of tyramine to octopamine, oxygen uptake by polarographic electrode); format: biochemical; details: pH 5, 20-40° C, preferably 37° C
T1 sequence (P15101 1-610): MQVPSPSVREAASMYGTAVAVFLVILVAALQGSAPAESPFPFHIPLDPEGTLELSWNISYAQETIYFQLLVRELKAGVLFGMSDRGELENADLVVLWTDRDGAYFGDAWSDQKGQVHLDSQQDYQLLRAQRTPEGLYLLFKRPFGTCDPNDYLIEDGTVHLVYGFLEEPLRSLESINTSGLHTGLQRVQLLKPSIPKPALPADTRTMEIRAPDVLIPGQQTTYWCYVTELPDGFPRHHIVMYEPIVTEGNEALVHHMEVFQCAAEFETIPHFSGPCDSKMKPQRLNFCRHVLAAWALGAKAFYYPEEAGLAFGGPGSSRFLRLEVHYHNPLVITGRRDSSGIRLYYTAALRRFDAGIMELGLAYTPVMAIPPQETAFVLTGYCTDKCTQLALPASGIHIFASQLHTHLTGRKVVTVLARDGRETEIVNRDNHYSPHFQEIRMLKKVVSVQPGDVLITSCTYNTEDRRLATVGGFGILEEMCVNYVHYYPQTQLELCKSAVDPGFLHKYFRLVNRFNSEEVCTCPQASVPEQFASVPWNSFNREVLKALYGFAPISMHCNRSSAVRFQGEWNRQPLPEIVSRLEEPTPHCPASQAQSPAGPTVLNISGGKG
Description: The DBH inhibitory compounds of this invention can readily be determined in vitro by standard and well known procedures for assaying conversion of tyramine to octopamine in the presence of dopamine beta-hydroxylase (DBH). Enzymatic oxygenation by DBH is determined in aqueous solution in the presence of molecular oxygen, an electron donor such as ascorbate, and the necessary cofactors for the enzyme at pH of 5 and a temperature of 20°-40° C., preferably 37° C. The test compound is added at the desired concentration, and the system is incubated. Activity is determined by measuring the oxygen uptake using a polarographic electrode and an oxygen monitor by the method of S. May, et al., J. Biol. Chem. 256, 2258 (1981). Inhibition is given in molar concentration of compound at which DBH activity was halved (IC50) when the test compounds were tested according to the above described procedure. The IC50 (expressed in micromolar units) data of some of the compounds of this invention are expressed in Table I.

[3] = tested on: DBH; test: in vivo DBH inhibition, heart dopamine level in spontaneously hypertensive rats; details: 50 mg/kg, IP, 6 hours post dose in SHR's; Control 0.015 ± .002; p < .001
Description: The compounds of this invention may also be tested for their in vivo DBH inhibiting property according to the procedure of Felice, Felice and Kessinger, J. Neurochem., 31, 1461-1465 (1978) wherein the effects on peripheral dopamine and norepinephrine levels are determined. In this test spontaneously hypertensive rats are dosed (i.p.) at 50 mg per kilogram of body weight and sacrificed six hours later. Average results, expressed in micrograms of dopamine (DA) per gram of heart tissue are determined with the difference between the control and the treated rats being the in vivo (DBH) inhibitory effect of the test compound.

IC50 [2] [nM] | Compound | Max Change MBP (mean blood pressure) [1] [mmHg] | Heart DA (dopamine per gram of heart tissue), treated [3]
120 | S=c1[nH]ccn1CCc1cccs1 [Compound 1, 1,3-Dihydro-1-[2-(2-thienyl)ethyl]-2H-imidazole-2-thione] | -45 ± 17 | 0.038 ± .003 µg/g
1860 | Sc1nccn1CCCc1cccs1 [Compound 2, 1,3-Dihydro-1-[3-(2-thienyl)propyl]-2H-imidazole-2-thione] | – | –

— patent US5057613A, “Novel thione dopamine beta hydroxylase inhibitors” (Merrell Dow Pharmaceuticals, priority 1987, dated 1991)
